Molecules are shown by their SMILES. Counter-ions that a name gives are not always drawn.

Assay [1] concerns Acinetobacter baumannii ATCC17961. The experiment in a line: Antimicrobial susceptibility testing, 90% growth inhibitory concentration (IC90) determination, ATCC17961. Type of assay: cell-based. The note with it: Iso-Sensitest broth, OD 600 nm over 16 h, 35±2° C., read-out: ATCC 17961 IC90. The procedure: Antimicrobial Susceptibility Testing: 90% Growth Inhibitory Concentration (IC90) Determination The in vitro antimicrobial activity of the compounds was determined according to the following procedure: The assay used a 10-points Iso-Sensitest broth medium to measure quantitatively the in vitro activity of the compounds against Acinetobacter baumannii ATCC17978 or ATCC17961. Stock compounds in DMSO were serially twofold diluted (e.g. range from 50 to 0.097 μM final concentration) in 384 wells microtiter plates and inoculated with 49 μl the bacterial suspension in Iso-Sensitest medium to have a final cell concentration of ˜5×10^(5) CFU/ml in a final volume/well of 50 ul/well. Microtiter plates were incubated at 35±2° C. Bacterial cell growth was determined with the measurement of optical density at X=600 nm each 20 minutes over a time course of 16 h. Growth inhibition was calculated during the logarithmic growth of the bacterial cells with determination of the concentration inhibiting 50% (IC50) and 90% (IC90) of the growth. Table 2 provides the 90% growth inhibitory concentrations (IC90) in micromoles per liter of the compounds of present invention obtained against the strain Acinetobacter baumannii ATCC17961.

Assay [2] relates to Acinetobacter baumannii ATCC17978. In words: Antimicrobial susceptibility testing, 90% growth inhibitory concentration (IC90) determination, ATCC17978. Format: cell-based. The note with it: Iso-Sensitest broth, OD 600 nm over 16 h, 35±2° C., read-out: ATCC 17978 IC90. The essentials: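 Serial twofold dilutions (e.g. 50 to 0.097 μM final) in Iso-Sensitest broth, inoculum ~5×10^(5) CFU/ml, incubated 35±2 °C for 16 h. OD600 read every 20 min; growth inhibition calculated during logarithmic growth to derive the concentration inhibiting 90% of growth, in μM.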

Broadly, the IC90 is the point of the concentration-response curve where the effect stands at 90%. Regarding `COc1ccc(-c2cnc(C(=O)Nc3ccc(C(=O)N[C@H]4[C@@H]5CN(C(=O)[C@@H]6C[C@@H](O)CN6)C[C@@H]54)c(Cl)c3)n2C)c(F)c1F` [Example B43, N-[3-chloro-4-[[(exo)-3-[(2S,4R)-4-hydroxyprolyl]-3-azabicyclo[3.1.0]hexan-6-yl]carbamoyl]phenyl]-5-(2,3-difluoro-4-methoxy-phenyl)-1-methyl-imidazole-2-carboxamide; 1:1 hydrogen chloride], in assay [1], the IC90 was 139 nM.

Regarding `Cc1cc(NC(=O)c2ncc(-c3ccc(OCC#N)c(F)c3F)n2C)ccc1C(=O)NCCNC(=O)C1CCNCC1` [Example B13, N-[2-[[4-[[5-[4-(cyanomethoxy)-2,3-difluoro-phenyl]-1-methyl-imidazole-2-carbonyl]amino]-2-methyl-benzoyl]amino]ethyl]piperidine-4-carboxamide;formic acid], the IC90 in assay [2] was 910 nM.

In the case of `CCc1cc(NC(=O)c2ncc(-c3ccc(OC)c(F)c3F)n2C)ccc1C(=O)NCCOCCN` [Example A13, N-[4-[2-(2-aminoethoxy)ethylcarbamoyl]-3-ethyl-phenyl]-5-(2,3-difluoro-4-methoxy-phenyl)-1-methyl-imidazole-2-carboxamide;formic acid], the IC90 in assay [2] stood at 590 nM.

Regarding `COc1ccc(-c2cnc(C(=O)Nc3ccc(C(=O)NCCOCCN)c(Cl)c3)n2C)c(F)c1F` [Example A1, N-[4-[2-(2-Aminoethoxy)ethylcarbamoyl]-3-chloro-phenyl]-5-(2,3-difluoro-4-methoxy-phenyl)-1-methyl-imidazole-2-carboxamide], the IC90 in assay [2] was determined as 240 nM.

Consider `CC(C)CCOCCNC(=O)c1ccc(NC(=O)c2ncc(-c3ccc(OCC#N)c(F)c3F)n2C)cc1Cl` [Example A27, N-[3-chloro-4-(2-isopentyloxyethylcarbamoyl)phenyl]-5-[4-(cyanomethoxy)-2,3-difluoro-phenyl]-1-methyl-imidazole-2-carboxamide;formic acid], for which, in assay [2], the IC90 amounted to 240 nM.

As to `CCc1cc(NC(=O)c2ncc(-c3ccc(OC)c(F)c3F)n2C)ccc1C(=O)NC1CN(C(=O)CN)C1` [Example B23, N-[4-[[1-(2-aminoacetyl)azetidin-3-yl]carbamoyl]-3-ethyl-phenyl]-5-(2,3-difluoro-4-methoxy-phenyl)-1-methyl-imidazole-2-carboxamide;formic acid], the IC90 in assay [2] was 300 nM.

In the case of `Cc1cc(NC(=O)c2ncc(-c3ccc(OCC#N)c(F)c3F)n2C)ccc1C(=O)NCCCN1CCNCC1` [Example A12, 5-[4-(cyanomethoxy)-2,3-difluoro-phenyl]-1-methyl-N-[3-methyl-4-(3-piperazin-1-ylpropylcarbamoyl)phenyl]imidazole-2-carboxamide;2,2,2-trifluoroacetic acid], in assay [2], the IC90 is 340 nM.

For `Cn1c(-c2ccc(OCC#N)c(F)c2F)cnc1C(=O)Nc1ccc(C(=O)NCCNC(=O)C2CCNCC2)c(Cl)c1` [Example B15, N-[2-[[2-chloro-4-[[5-[4-(cyanomethoxy)-2,3-difluoro-phenyl]-1-methyl-imidazole-2-carbonyl]amino]benzoyl]amino]ethyl]piperidine-4-carboxamide;2,2,2-trifluoroacetic acid], the IC90 in assay [2] was 360 nM.

For the compound `CCc1cc(NC(=O)c2ncc(-c3c(F)cc(OC)cc3F)n2C)ccc1C(=O)NCCOCCN` [Example A18, N-[4-[2-(2-aminoethoxy)ethylcarbamoyl]-3-ethyl-phenyl]-5-(2,6-difluoro-4-methoxy-phenyl)-1-methyl-imidazole-2-carboxamide;hydrochloride], the IC90 in assay [2] was found to be 1200 nM.

With `COc1ccc(-c2cnc(C(=O)Nc3ccc(C(=O)NCC4CC(N)C4)c(Cl)c3)n2C)c(F)c1F` (stereo not drawn) [Example A8, N-[4-[(3-aminocyclobutyl)methylcarbamoyl]-3-chloro-phenyl]-5-(2,3-difluoro-4-methoxy-phenyl)-1-methyl-imidazole-2-carboxamide;formic acid], the IC90 in assay [2] was 500 nM.

`COc1ccc(-c2cnc(C(=O)Nc3ccc(C(=O)N[C@H]4[C@@H]5CN(C(=O)N[C@@H]6CNC[C@H]6O)C[C@@H]54)c(Cl)c3)n2C)c(F)c1F` [Example B44, (exo)-6-[[2-chloro-4-[[5-(2,3-difluoro-4-methoxy-phenyl)-1-methyl-imidazole-2-carbonyl]amino]benzoyl]amino]-N-[(trans)-4-hydroxypyrrolidin-3-yl]-3-azabicyclo[3.1.0]hexane-3-carboxamide; 1:1 hydrogen chloride]: in assay [1], the concentration for an effect of 90% (IC90) came to 155 nM.

Take `COc1ccc(-c2cnc(C(=O)Nc3ccc(C(=O)NC4CCN(C(=O)CN(C)C)C4)c(Cl)c3)n2C)c(F)c1F` (stereo not drawn) [Example A23, N-[3-Chloro-4-[[1-[2-(dimethylamino)acetyl]pyrrolidin-3-yl]carbamoyl]phenyl]-5-(2,3-difluoro-4-methoxy-phenyl)-1-methyl-imidazole-2-carboxamide]: the IC90 in assay [2] was 220 nM.

`COc1ccc(-c2cnc(C(=O)Nc3ccc(C(=O)NCC4CN(C(=O)CN)C4)c(Cl)c3)n2C)c(F)c1F` [Example B18, N-[4-[[1-(2-aminoacetyl)azetidin-3-yl]methylcarbamoyl]-3-chloro-phenyl]-5-(2,3-difluoro-4-methoxy-phenyl)-1-methyl-imidazole-2-carboxamide;formic acid]: in assay [2], the IC90 came out at 240 nM.

In the case of `Cn1c(-c2ccc(OCC#N)c(F)c2F)cnc1C(=O)Nc1ccc(C(=O)NCCNC(=O)[C@@H]2CCNC[C@@H]2O)c(Cl)c1` [Example B32, (3R,4R)-N-[2-[[2-chloro-4-[[5-[4-(cyanomethoxy)-2,3-difluoro-phenyl]-1-methyl-imidazole-2-carbonyl]amino]benzoyl]amino]ethyl]-3-hydroxy-piperidine-4-carboxamide;formic acid], in assay [2], the IC90 was found to be 1200 nM.

With `COc1ccc(-c2cnc(C(=O)Nc3ccc(C(=O)N[C@H]4C[C@@H](NC(=O)C5CCNCC5)C4)c(Cl)c3)n2C)c(F)c1F` [Example B39, N-[3-[[2-chloro-4-[[5-(2,3-difluoro-4-methoxy-phenyl)-1-methyl-imidazole-2-carbonyl]amino]benzoyl]amino]cyclobutyl]piperidine-4-carboxamide;formic acid], the IC90 in assay [2] came out at 57 nM.

Source of the values: patent US20230257354A1, “NOVEL HETEROCYCLIC COMPOUNDS” (Hoffmann-La Roche Inc., priority 2020, published 2023).
